Measured values as given in paper PMC8286599 (Gut Pathogens, 2021).
Like-named read-outs stand apart in the source and are kept apart here.

Legend:
[1] = tested on: MDR-S. Typhimurium strains; assay: Stability assay, cationic salts (MIC)
Excerpt: (§4) To explore the utility of phytochemicals as therapeutic molecules and their stability, individual phytochemicals were exposed to cationic salts, and different pH levels followed by analysing their MIC and MBC values against test strains as described earlier.
(§5) Subsequent to exposure to varied conditions, the antimicrobial activity of the phytochemicals was estimated by determining their MIC and MBC values against all the selected MDR strains of EAEC, S. Enteritidis, and S. Typhimurium as described earlier.

MDR-EAEC strains [2] = assay: Stability assay, cationic salts (MIC)
Excerpt: as §4, §5

[3] = tested on: MDR-S. Typhimurium strains; assay: MIC and MBC by broth microdilution with resazurin; type: cell-based, Salmonella Typhimurium; conditions: poultry droppings isolate
Excerpt: (§1) The characterised MDR field strains of EAEC (E1; E2; E3), S. Enteritidis (S1; S2; S3), and S. Typhimurium (ST1; ST2; ST3) maintained in the laboratory repository of Meat Safety Laboratory of ICAR-National Research Centre on Meat, Hyderabad re-validated using PCR assays were used to evaluate the in vitro antibacterial efficacy of phytochemicals. E. coli ATCC 25922 was used as the quality control strain.
(§2) The antimicrobial efficacy of identified phytochemicals against multi-drug resistant EAEC and NTS strains was determined by estimating the minimum inhibitory concentration (MIC) and minimum bactericidal concentrations (MBC).
(§3) Subsequent to the incubation period, resazurin dye (0.015 %) was added to all the wells to determine the dye reduction (pink) and thereby the bacterial inhibition.

[4] = tested on: MDR-S. Enteritidis strains; assay: Stability assay, cationic salts (MIC)
Excerpt: as §4, §5

MDR-EAEC strains [5] = assay: MIC and MBC by broth microdilution with resazurin; type: cell-based, enteroaggregative Escherichia coli; conditions: infant diarrhoea isolate
Excerpt: as §1, §2, §3

Haemolytic assay = type: cell-based; conditions: read-out: Haemolysis; for hemolysis at 0.5 X MIC: 0.50X MIC
Procedure: The haemolytic assay of the individual phytochemical was performed by measuring the release of haemoglobin from sheep and human ‘O’ erythrocytes at 540 nm. The percentage of haemolysis was calculated as (Asample – APBS)/ (ATriton−X – APBS) ×100, in which Asample is the absorbance of phytochemical treatment, APBS is the absorbance of untreated control with PBS, and ATriton−X is the absorbance of lysed cells treated with Triton X-100 measured at 540 nm.

[6] = tested on: MDR-S. Enteritidis strains; assay: MIC and MBC by broth microdilution with resazurin; type: cell-based, Salmonella Enteritidis; conditions: poultry droppings isolate
Excerpt: as §1, §2, §3

[7] = tested on: MDR-S. Enteritidis strains; assay: Stability assay, pH (MIC)
Excerpt: as §4, §5

MDR-EAEC strains [8] = assay: Stability assay, pH (MIC)
Excerpt: as §4, §5

[9] = tested on: MDR-S. Typhimurium strains; assay: Stability assay, pH (MIC)
Excerpt: as §4, §5

[10] = human 'O' erythrocytes, Human RBCs

In the case of `O=C/C=C/c1ccccc1` [Cinnamaldehyde, cinnamaldehyde], the “MIC with cationic salt” value ([1]; 2 mM MgCl2, strain ST1) was 0.5 µl/ml, the “MIC with cationic salt” value ([1]; 2 mM MgCl2, strain ST2) was 0.5 µl/ml and the “MIC with cationic salt” value ([1]; 2 mM MgCl2, strain ST3) was 1.0 µl/ml. For the same compound, the “MIC with cationic salt” value ([1]; 150 mM NaCl, strain ST1) was 0.5 µl/ml, the “MIC with cationic salt” value ([1]; 150 mM NaCl, strain ST2) was 0.5 µl/ml and the “MIC with cationic salt” value ([1]; 150 mM NaCl, strain ST3) was 1.0 µl/ml. For the same compound, the “MIC with cationic salt” value (MDR-EAEC strains [2]; 2 mM MgCl2, strain E1) was 0.5 µl/ml, the “MIC with cationic salt” value (MDR-EAEC strains [2]; 2 mM MgCl2, strain E2) was 0.5 µl/ml and the “MIC with cationic salt” value (MDR-EAEC strains [2]; 2 mM MgCl2, strain E3) was 0.5 µl/ml. For the same compound, the “Change of MIC values with cationic salts” value (MDR-EAEC strains [2]; 150 mM NaCl and 2 mM MgCl2, MDR-EAEC strains) was “remained almost similar”, the “MIC with cationic salt” value (MDR-EAEC strains [2]; 150 mM NaCl, strain E1) was 0.5 µl/ml and the “MIC with cationic salt” value (MDR-EAEC strains [2]; 150 mM NaCl, strain E2) was 0.5 µl/ml. For the same compound, the “MIC with cationic salt” value (MDR-EAEC strains [2]; 150 mM NaCl, strain E3) was 0.5 µl/ml, the MBC ([3]; S. Typhimurium (ST1)) was 0.50 µl/ml and the MIC ([3]; S. Typhimurium (ST1)) was 0.25 µl/ml. For the same compound, the MBC ([3]; S. Typhimurium (ST2)) was 0.50 µl/ml, the MIC ([3]; S. Typhimurium (ST2)) was 0.25 µl/ml and the MBC ([3]; S. Typhimurium (ST3)) was 1.0 µl/ml. The MIC ([3]; S. Typhimurium (ST3)) was 0.12 µl/ml, the “MIC with cationic salt” value ([4]; 2 mM MgCl2, strain S1) was 0.5 µl/ml and the “MIC with cationic salt” value ([4]; 2 mM MgCl2, strain S2) was 0.5 µl/ml. For the same compound, the “MIC with cationic salt” value ([4]; 2 mM MgCl2, strain S3) was 0.5 µl/ml, the “MIC with cationic salt” value ([4]; 150 mM NaCl, strain S1) was 0.5 µl/ml and the “MIC with cationic salt” value ([4]; 150 mM NaCl, strain S2) was 0.5 µl/ml. For the same compound, the “MIC with cationic salt” value ([4]; 150 mM NaCl, strain S3) was 0.5 µl/ml, the MBC (MDR-EAEC strains [5]; EAEC (E1)) was 0.50 µl/ml and the MIC (MDR-EAEC strains [5]; EAEC (E1)) was 0.50 µl/ml. For the same compound, the MBC (MDR-EAEC strains [5]; EAEC (E2)) was 1.0 µl/ml, the MIC (MDR-EAEC strains [5]; EAEC (E2)) was 0.50 µl/ml and the MBC (MDR-EAEC strains [5]; EAEC (E3)) was 0.50 µl/ml. For the same compound, the MIC (MDR-EAEC strains [5]; EAEC (E3)) was 0.25 µl/ml, the hemolysis at 0.25 X MIC (Haemolytic assay; [10]) was 0.554% and the hemolysis at 0.5 X MIC (Haemolytic assay; [10]) was 0.696%. The hemolysis at 1 X MIC (Haemolytic assay; [10]) was 2.03%, the hemolysis at 2 X MIC (Haemolytic assay; [10]) was 5% and the hemolysis at 4 X MIC (Haemolytic assay; [10]) was 12.8%. For the same compound, the hemolysis at 8 X MIC (Haemolytic assay; [10]) was 19.1%, the hemolysis at 0.25 X MIC (Haemolytic assay; sheep erythrocytes, Sheep RBCs) was 0.109% and the hemolysis at 0.5 X MIC (Haemolytic assay; sheep erythrocytes, Sheep RBCs) was 0.274%. For the same compound, the hemolysis at 1 X MIC (Haemolytic assay; sheep erythrocytes, Sheep RBCs) was 3.61%, the hemolysis at 2 X MIC (Haemolytic assay; sheep erythrocytes, Sheep RBCs) was 11.7% and the hemolysis at 4 X MIC (Haemolytic assay; sheep erythrocytes, Sheep RBCs) was 12.5%. The hemolysis at 8 X MIC (Haemolytic assay; sheep erythrocytes, Sheep RBCs) was 22%, the MBC ([6]; S. Enteritidis (S1)) was 0.50 µl/ml and the MIC ([6]; S. Enteritidis (S1)) was 0.12 µl/ml. It also gave an MBC ([6]; S. Enteritidis (S2)) of 0.50 µl/ml, an MIC ([6]; S. Enteritidis (S2)) of 0.12 µl/ml and an MBC ([6]; S. Enteritidis (S3)) of 0.50 µl/ml. The MIC ([6]; S. Enteritidis (S3)) was 0.12 µl/ml, the “MIC at given pH” value ([7]; pH 4, strain S1) was 0.5 µl/ml and the “MIC at given pH” value ([7]; pH 4, strain S2) was 0.5 µl/ml. The “MIC at given pH” value ([7]; pH 4, strain S3) was 0.5 µl/ml, the “MIC at given pH” value ([7]; pH 6, strain S1) was 0.5 µl/ml and the “MIC at given pH” value ([7]; pH 6, strain S2) was 0.5 µl/ml. For the same compound, the “MIC at given pH” value ([7]; pH 6, strain S3) was 0.5 µl/ml, the “MIC at given pH” value ([7]; pH 8, strain S1) was 0.5 µl/ml and the “MIC at given pH” value ([7]; pH 8, strain S2) was 0.5 µl/ml. For the same compound, the “MIC at given pH” value ([7]; pH 8, strain S3) was 1.0 µl/ml, the “MIC at given pH” value (MDR-EAEC strains [8]; pH 4, strain E1) was 0.5 µl/ml and the “MIC at given pH” value (MDR-EAEC strains [8]; pH 4, strain E2) was 0.5 µl/ml. The “MIC at given pH” value (MDR-EAEC strains [8]; pH 4, strain E3) was 0.5 µl/ml, the “MIC at given pH” value (MDR-EAEC strains [8]; pH 6, strain E1) was 0.5 µl/ml and the “MIC at given pH” value (MDR-EAEC strains [8]; pH 6, strain E2) was 0.5 µl/ml. For the same compound, the “MIC at given pH” value (MDR-EAEC strains [8]; pH 6, strain E3) was 0.5 µl/ml, the “MIC at given pH” value (MDR-EAEC strains [8]; pH 8, strain E1) was 0.5 µl/ml and the “MIC at given pH” value (MDR-EAEC strains [8]; pH 8, strain E2) was 0.5 µl/ml. For the same compound, the “MIC at given pH” value (MDR-EAEC strains [8]; pH 8, strain E3) was 0.5 µl/ml, the “MIC at given pH” value ([9]; pH 4, strain ST1) was 0.5 µl/ml and the “MIC at given pH” value ([9]; pH 4, strain ST2) was 1.0 µl/ml. The “MIC at given pH” value ([9]; pH 4, strain ST3) was 1.0 µl/ml, the “MIC at given pH” value ([9]; pH 6, strain ST1) was 0.5 µl/ml and the “MIC at given pH” value ([9]; pH 6, strain ST2) was 1.0 µl/ml. The “MIC at given pH” value ([9]; pH 6, strain ST3) was 1.0 µl/ml, the “MIC at given pH” value ([9]; pH 8, strain ST1) was 0.5 µl/ml and the “MIC at given pH” value ([9]; pH 8, strain ST2) was 1.0 µl/ml. For the same compound, the “MIC at given pH” value ([9]; pH 8, strain ST3) was 1.0 µl/ml.
